Structures can show the parent of a compound that is named as a salt. Where two headings read alike, the source gives them in different places.
Tests used:
[1] = system: Candida albicans (ATCC 10231); experiment: Stand-alone biocidal test without organic soil; format: cell-based; details: 25 ppm in BBS; for log reduction at 25 ppm: Candida albicans, ATCC10231, without organic soil, read-out: Stand-alone biocidal result (microbial log reduction) C. albicans
Procedure: (§1) A test was conducted to study the microbiocidal efficacy of a solution containing a quaternary ammonium ester of the present invention employing borate buffered saline (BBS). The antimicrobial efficacy of each of the various compositions for the chemical disinfection of contact lenses was evaluated. Microbial challenge inoculums were prepared using Pseudomonas aeruginosa (ATCC 9027), Staphylococcus aureus (ATCC 6538), Serratia marcescens (ATCC 13880), Candida albicans (ATCC 10231) and Fusarium solani (ATCC 36031). The test organisms were cultured on appropriate agar and the cultures were harvested using sterile DPBST (Dulbecco's Phosphate Buffered Saline plus 0.05 percent weight/volume polysorbate 80) or a suitable diluent and transferred to a suitable vessel. Spore suspensions were filtered through sterile glass wool to remove hyphal fragments. Serratia marcescens, as appropriate, was filtered through a 1.2 mμ filter to clarify the suspension. After harvesting, the suspension was centrifuged at no more than 5000×g for a maximum of 30 minutes at 20 to 25° C. The supernatant was poured off and resuspended in DPBST or other suitable diluent. The suspension was centrifuged a second time, and resuspended in DPBST or other suitable diluent. All challenge bacterial and fungal cell suspensions were adjusted with DPBST or other suitable diluent to 1×10^7 to 1×10^8 cfu/ml. The appropriate cell concentration may be estimated by measuring the turbidity of the suspension, for example, using a spectrophotometer at a preselected wavelength, for example 490 nm. One tube was prepared containing a minimum of 10 ml of test solution per challenge organism. Each tube of the solution to be tested was inoculated with a suspension of the test organism sufficient to provide a final count of 1×10^5 to 1×10^6 cfu/ml, the volume of the inoculum not exceeding 1 percent of the sample volume. Dispersion of the inoculum was ensured by vortexing the sample for at least 15 seconds. The inoculated product was stored at 10 to 25° C. Aliquots in the amount of 1.0 ml were taken of the inoculated product for determination of viable counts after certain time periods of disinfection. The time points for the bacteria were, for example, 1, 2, 3 and 4 hours when the proposed regimen soaking time was four hours. Yeast and mold were tested at an additional timepoint of 16 hours (4 times the regimen time). The suspension was mixed well by vortexing vigorously for at least 5 seconds. The 1.0 ml aliquots removed at the specified time intervals were subjected to a suitable series of decimal dilutions in validated neutralizing media. The suspensions were mixed vigorously and incubated for a suitable period of time to allow for neutralization of the microbial agent at room temperature. The viable count of organisms was determined in appropriate dilutions by preparation of triplicate plates of trypticase soy (TSA) agar for bacteria and Sabouraud dextrose agar (SDA) for mold and yeast. The bacterial recovery plates were incubated at 30 to 35° C. for two to four days. The yeast was incubated at 20 to 30° C. for two to four days and mold recovery plates were incubated at 20 to 25° C. for three to seven days. The average number of colony forming units was determined on countable plates. Countable plates refer to 30 to 300 cfu/plates for bacteria and yeast, and 8 to 80 cfu/plate for mold except when colonies are observed only for the 10^0 or 10^−1 dilution plates. The microbial reduction was then calculated at the specified time points. […] Following inoculation in a validated neutralizing broth and incubation for an appropriate period of time, the inoculum control must be between 1.0×10^5 to 1.0×10^6 cfu/ml. […]

[2] = system: Fusarium solani (ATCC 36031); experiment: Stand-alone biocidal test without organic soil; format: cell-based; details: 25 ppm in BBS; for log reduction at 25 ppm: Fusarium solani, ATCC36031, without organic soil, read-out: Stand-alone biocidal result (microbial log reduction) F. solani
Procedure: as §1

[3] = system: Pseudomonas aeruginosa (ATCC 9027); experiment: Stand-alone biocidal test without organic soil; format: cell-based; details: 25 ppm in BBS; for Stand-alone biocidal result (microbial log reduction) P. aeruginosa: without organic soil
Procedure: as §1

[4] = system: Serratia marcescens (ATCC 13880); experiment: Stand-alone biocidal test without organic soil; format: cell-based; details: 25 ppm in BBS; for Stand-alone biocidal result (microbial log reduction) S. marcescens: without organic soil
Procedure: as §1

[5] = system: Staphylococcus aureus (ATCC 6538); experiment: Stand-alone biocidal test without organic soil; format: cell-based; details: 25 ppm in BBS; for Stand-alone biocidal result (microbial log reduction) S. aureus: without organic soil
Procedure: as §1

Row | melting point [°C] | SMILES | log reduction at 25 ppm ([1]; 1 hr.) | log reduction at 25 ppm ([1]; 4 hr.) | log reduction at 25 ppm ([2]; 1 hr.) | log reduction at 25 ppm ([2]; 4 hr.) | Stand-alone biocidal result (microbial log reduction) P. aeruginosa ([3]; 1 hr.) | Stand-alone biocidal result (microbial log reduction) P. aeruginosa ([3]; 4 hr.) | Stand-alone biocidal result (microbial log reduction) S. marcescens ([4]; 1 hr.) | Stand-alone biocidal result (microbial log reduction) S. marcescens ([4]; 4 hr.) | Stand-alone biocidal result (microbial log reduction) S. aureus ([5]; 1 hr.) | Stand-alone biocidal result (microbial log reduction) S. aureus ([5]; 4 hr.) | further results
1 | 80 to 82 | CCCCCCCCCCCCCC(=O)OCCC[N+](C)(C)CCC (as salt: iodide) [Compound 9, N-myristoyloxypropyl-N,N-dimethyl-N-propylammonium iodide] | – | – | – | – | – | – | – | – | – | – | –
2 | 90 to 91 | CCCCCCCCCCCCCC(=O)OCCC[N+](C)(C)CCCCC (as salt: iodide) [Compound 11, N-myristoyloxypropyl-N,N-dimethyl-N-pentylammonium iodide] | – | – | – | – | – | – | – | – | – | – | –
3 | 107 to 109 | CCCCCCCC(=O)OCCC[N+](C)(C)C (as salt: iodide) [Compound 2, N-capryloyloxypropyl-N,N,N-trimethylammonium iodide] | – | – | – | – | – | – | – | – | – | – | –
4 | – | CCCCCCCCCCCCCC(=O)OCCC[N+](C)(C)C [Compound 5, N-myristoyloxypropyl-N,N,N-trimethylammonium iodide] | 1.9 | 3.4 | 3.2 | 3.3 | >4.6 | >4.6 | 3.4 | >4.6 | >4.7 | >4.7 | –
5 | 60 to 62 | CCCCCCCCCCCCCC(=O)OCCC[N+](C)(C)CC (as salt: iodide) [Compound 8, N-myristoyloxypropyl-N,N-dimethyl-N-ethylammonium iodide] | – | – | – | – | – | – | – | – | – | – | –
6 | 121 to 124 | CCCCCCCCCCCC(=O)OCCC[N+](C)(C)C (as salt: iodide) [Compound 4, N-lauroyloxypropyl-N,N,N-trimethylammonium iodide] | – | – | – | – | – | – | – | – | – | – | –
7 | 103 to 104 | CCCCCCCCCCCCCC(=O)OCCC[N+](C)(C)CCCCCCCCCC (as salt: iodide) [Compound 13, N-myristoyloxypropyl-N-decyl-N,N-dimethylammonium iodide] | – | – | – | – | – | – | – | – | – | – | –
8 | 87 to 89 | CCCCCCCCCCCCCC(=O)OCCC[N+](C)(C)CCCC (as salt: iodide) [Compound 10, N-myristoyloxypropyl-N-butyl-N,N-dimethylammonium iodide] | – | – | – | – | – | – | – | – | – | – | –
9 | – | CCCCCCCCCCCCCC(=O)NCCCN(C)C [N-myristamidopropyl-N,N-dimethylamine, reference compound] | – | – | – | – | – | – | – | – | – | – | Effectiveness against C. albicans (stand-alone biocidal data) [1]: effective; Effectiveness against F. solani (stand-alone biocidal data) [2]: effective; Effectiveness against P. aeruginosa (stand-alone biocidal data) [3]: effective; Effectiveness against S. marcescens (stand-alone biocidal data) [4]: not effective; Effectiveness against S. aureus (stand-alone biocidal data) [5]: effective
10 | – | CCCCCCCCCCCCCC(=O)OCCC[N+](C)(C)CCCCCCCCCC [Compound 13, N-myristoyloxypropyl-N-decyl-N,N-dimethylammonium iodide] | 0.5 | 1.2 | 1.5 | 3.1 | 3.5 | 4.7 | TNTC | 2.9 | 3.8 | 4.8 | –
11 | – | CCCCCCCCCCCCCC(=O)NCCC[N+](C)(C)C.[I-] [N-myristamidopropyl-N,N,N-trimethylammonium iodide, reference compound] | – | – | – | – | – | – | – | – | – | – | Effectiveness against C. albicans (stand-alone biocidal data) [1]: failed; Effectiveness against F. solani (stand-alone biocidal data) [2]: failed; Effectiveness against P. aeruginosa (stand-alone biocidal data) [3]: proved effective; Effectiveness against S. marcescens (stand-alone biocidal data) [4]: failed; Effectiveness against S. aureus (stand-alone biocidal data) [5]: proved effective
12 | – | CCCCCCCCCCCC(=O)OCCC[N+](C)(C)C [Compound 4, N-lauroyloxypropyl-N,N,N-trimethylammonium iodide] | 0 | 0.1 | 0.1 | 0.6 | 2.0 | 3.0 | TNTC | TNTC | TNTC | TNTC | –
13 | – | CCCCCCCCCCCCCC(=O)OCCOCC[N+](C)(C)C [Compound 15, N-myristoyloxyethoxyethyl-N,N,N-trimethylammonium iodide] | 3.6 | 4.6 | 3.8 | 4.1 | >4.7 | >4.7 | 3.8 | >4.8 | >4.8 | >4.8 | –
14 | – | CCCCCCCC(=O)OCCC[N+](C)(C)C [Compound 2, N-capryloyloxypropyl-N,N,N-trimethylammonium iodide] | 0 | 0.2 | 0.1 | 0.6 | TNTC | TNTC | TNTC | TNTC | TNTC | TNTC | –
15 | – | CCCCCCCCCCCCCC(=O)OCCCN(C)C [N-myristoyloxypropyl-N,B-dimethylamine, reference compound] | – | – | – | – | – | – | – | – | – | – | Effectiveness against C. albicans (stand-alone biocidal data) [1]: failed to be effective; Effectiveness against F. solani (stand-alone biocidal data) [2]: failed to be effective; Effectiveness against P. aeruginosa (stand-alone biocidal data) [3]: failed to be effective; Effectiveness against S. marcescens (stand-alone biocidal data) [4]: failed to be effective; Effectiveness against S. aureus (stand-alone biocidal data) [5]: failed to be effective
16 | – | CCCCCCCCCCCCCCCCCC(=O)OCCC[N+](C)(C)C [Compound 7, N-stearoyloxypropyl-N,N,N-trimethylammonium iodide] | 0.7 | 2.5 | 2.9 | 3.5 | 2.0 | 3.3 | TNTC | TNTC | 3.5 | >4.8 | –
17 | – | CCCCCCCCCCCCCC(=O)OCCC[N+](C)(C)CCCC [Compound 10, N-myristoyloxypropyl-N-butyl-N,N-dimethylammonium iodide] | 4.5 | > 4.8 | > 4.5 | > 4.5 | >4.7 | 4.7 | 3.8 | >4.8 | >4.8 | >4.8 | –
